From DBAASP
Values after ≈ are worked out from the molar mass of the structure shown. Values belong to the compound of their own block, whether it stands above or below them.

Experiments:
Assay in all cases: ≥ marks a high value that may be exact or a test limit, other limits are often not marked, values filed in µg/mL are converted to µM
Klebsiella pneumoniae = system: Klebsiella pneumoniae
Vibrio cholerae N16961 = system: Vibrio cholerae N16961
Staphylococcus aureus = system: Staphylococcus aureus
[1] = system: Escherichia coli ATCC 25922
[2] = system: Aeromonas hydrophila ATCC 35654
[3] = system: Micrococcus luteus ATCC 49732
[4] = system: Staphylococcus aureus ATCC 25923
[5] = system: Pseudomonas aeruginosa ATCC 9027
[6] = system: Candida albicans ATCC 10231
[7] = system: Enterococcus faecalis PCM 2673
[8] = system: Pseudomonas aeruginosa NBRC 13275
[9] = system: Escherichia coli DH5alpha
[10] = system: Staphylococcus aureus NBRC 13276
[11] = system: Staphylococcus aureus M838-17
[12] = system: Pseudomonas aeruginosa E411-17
[13] = system: Klebsiella pneumoniae E406-17
[14] = system: Staphylococcus aureus ATCC 29213
[15] = system: Pseudomonas aeruginosa ATCC 27853
[16] = system: Escherichia coli ATCC 11229
[17] = system: Salmonella enterica serovar Typhimurium
[18] = system: Escherichia coli ATCC 35218
[19] = system: Staphylococcus aureus ATCC 33591
[20] = system: Klebsiella pneumoniae ATCC 13866
[21] = system: Staphylococcus epidermidis ATCC 12228
[22] = system: Clavibacter michiganensis subsp. michiganensis MAFF 301254
[23] = system: Xanthomonas oryzae pv. oryzae MAFF 311018
[24] = system: Pyricularia oryzae MAFF 101511
[25] = system: Staphylococcus epidermidis ATCC 14990
[26] = system: Staphylococcus aureus ATCC 27660
[27] = system: Pseudomonas aeruginosa ATCC 10145
[28] = system: Salmonella enterica subsp. enterica serovar Typhimurium ATCC 700931
Escherichia coli D31 = system: Escherichia coli D31
Escherichia coli BL21AI = system: Escherichia coli BL21AI
[29] = system: Micrococcus luteus DSM 1790

- MIC [1]: 12 µM (≈ 25.1 µg/mL)
- MIC [2]: 20 µM (≈ 41.8 µg/mL)
- MIC [3]: 7.2 µM (≈ 15 µg/mL)
- MIC [4]: > 20 µM
Structure (SMILES): CC[C@H](C)[C@H](NC(=O)[C@H](CC(C)C)NC(=O)[C@H](CCC(N)=O)NC(=O)[C@@H](NC(=O)[C@H](CCCCN)NC(=O)[C@@H](NC(=O)[C@H](CS)NC(=O)[C@H](CCCCN)NC(=O)[C@@H](N)CCCN=C(N)N)C(C)C)C(C)C)C(=O)N[C@@H](CCCCN)C(=O)N[C@@H](CC(N)=O)C(=O)NCC(=O)N[C@@H](CCCN=C(N)N)C(=O)N[C@@H](CCC(N)=O)C(=O)N[C@H](C(=O)N[C@H](C(=O)N[C@@H](C)C(=O)N[C@@H](Cc1ccccc1)C(N)=O)[C@@H](C)O)C(C)C [RKCVKVQLIKNGRQVTAF]

- MIC [11]: 12.5 µM (≈ 16.3 µg/mL)
- MIC [12]: 25 µM (≈ 32.5 µg/mL)
- MIC [13]: ≥ 50 µM
Structure (SMILES): C[C@H](NC(=O)[C@H](Cc1c[nH]c2ccccc12)NC(=O)[C@H](Cc1c[nH]c2ccccc12)NC(=O)[C@H](Cc1c[nH]c2ccccc12)NC(=O)[C@H](Cc1c[nH]c2ccccc12)NC(=O)[C@H](CCCN=C(N)N)NC(=O)[C@H](CCCN=C(N)N)NC(=O)[C@@H](N)CCCN=C(N)N)C(N)=O [RRRWWWWA]

- MIC (Escherichia coli BL21AI): 28.2 µM (≈ 62.5 µg/mL)
- MIC [29]: 14.1 µM (≈ 31.3 µg/mL)
Structure (SMILES): CC[C@H](C)[C@H](NC(=O)[C@H](CCCN=C(N)N)NC(=O)[C@H](CCCN=C(N)N)NC(=O)[C@@H]1CCCN1C(=O)[C@@H]1CCCN1C(=O)[C@H](Cc1cnc[nH]1)NC(=O)[C@@H]1CCCN1C(=O)[C@H](CCCN=C(N)N)NC(=O)[C@@H]1CCCN1C(=O)[C@H](CC(C)C)NC(=O)[C@H](Cc1ccc(O)cc1)NC(=O)[C@@H]1CCCN1C(=O)[C@@H]1CCCN1C(=O)[C@H](CCCCN)NC(=O)[C@H](CC(=O)O)NC(=O)[C@@H](N)C(C)C)C(=O)N[C@@H](Cc1ccc(O)cc1)C(=O)N[C@@H](CC(N)=O)C(=O)O [VDKPPYLPRPHPPRRIYN]

Continued, compound first:

Structure (SMILES): CC[C@H](C)[C@@H]1NC(=O)CNC(=O)[C@@H](NC(=O)[C@H](CC(C)C)NC(=O)[C@@H](NC(=O)[C@H](CO)NC(=O)[C@@H]2CCCN2C(=O)[C@H](CC(C)C)NC(=O)[C@@H](NC(=O)[C@H](CCCCN)NC(=O)[C@H](C)NC(=O)CNC(=O)[C@@H](NC(=O)[C@H](CCCCN)NC(=O)[C@H](CC(C)C)NC(=O)[C@H](CC(C)C)NC(=O)[C@H](C)NC(=O)CNC(=O)[C@H](CC(C)C)NC(=O)[C@@H](N)Cc2ccccc2)[C@@H](C)CC)C(C)C)C(C)C)CSSC[C@@H](C(N)=O)NC(=O)[C@H](CCCCN)NC(=O)[C@H](CCCCN)NC(=O)[C@H](Cc2ccccc2)NC1=O [FLGALLKIGAKVLPSVLCGIFKKC]
- MIC (Klebsiella pneumoniae): 15 µM (≈ 37.7 µg/mL)
- MIC (Vibrio cholerae N16961): 4.5 µM (≈ 11.3 µg/mL)
- MIC (Staphylococcus aureus): 4 µM (≈ 10.1 µg/mL)

Structure (SMILES): CC[C@H](C)[C@H](NC(=O)[C@H](CCCCN)NC(=O)[C@H](CCCCN)NC(=O)[C@@H](NC(=O)[C@@H](NC(=O)[C@H](CC(=O)O)NC(=O)[C@H](Cc1ccccc1)NC(=O)[C@H](CC(C)C)NC(=O)CN)[C@@H](C)CC)[C@@H](C)CC)C(=O)N[C@@H](C)C(=O)N[C@@H](CCC(=O)O)C(=O)N[C@@H](C)C(=O)N[C@@H](Cc1ccccc1)C(N)=O [GLFDIIKKIAEAF]
- MIC [1]: 43.7 µM (≈ 64 µg/mL)
- MIC [5]: > 350 µM
- MIC [4]: 21.8 µM (≈ 32 µg/mL)
- MIC [6]: 21.8 µM (≈ 32 µg/mL)
- MIC [7]: ≥ 43.7 µM

Structure (SMILES): CC[C@H](C)[C@H](NC(=O)[C@H](CCC(=O)O)NC(=O)CNC(=O)[C@@H](NC(=O)[C@H](Cc1ccccc1)NC(=O)[C@H](C)NC(=O)[C@H](CCCCN)NC(=O)CNC(=O)[C@H](Cc1ccccc1)NC(=O)[C@H](CCCCN)NC(=O)[C@H](CCCCN)NC(=O)[C@H](C)NC(=O)[C@H](CO)NC(=O)[C@H](Cc1cnc[nH]1)NC(=O)[C@H](CC(C)C)NC(=O)[C@H](Cc1ccccc1)NC(=O)[C@H](CCCCN)NC(C)=O)C(C)C)C(=O)N[C@@H](CCSC)C(=O)N[C@@H](CC(N)=O)C(=O)N[C@@H](CO)C(N)=O [KFLHSAKKFGKAFVGEIMNS]
- MIC [8]: ≥ 200 µM
- MIC [9]: ≥ 200 µM
- MIC [10]: ≥ 400 µM

Structure (SMILES): CC[C@H](C)[C@H](NC(=O)[C@H](C)NC(=O)[C@H](CCCN=C(N)N)NC(=O)[C@H](CC(C)C)NC(=O)[C@@H](NC(=O)[C@H](CO)NC(=O)CN)C(C)C)C(=O)N[C@@H](CCSC)C(=O)N[C@@H](CCCN=C(N)N)C(=O)N[C@@H](CCSC)C(=O)N[C@@H](Cc1ccccc1)C(=O)N[C@@H](C)C(=O)N[C@@H](CCCCN)C(=O)N[C@@H](CC(C)C)C(=O)N[C@@H](CCSC)C(=O)NCC(=O)O [GSVLRAIMRMFAKLMG]
- MIC [14]: 35.9 µM (≈ 64 µg/mL)
- MIC [15]: 18 µM (≈ 32 µg/mL)
- MIC [16]: ≥ 35.9 µM
- MIC [17]: ≥ 35.9 µM
- MIC [18]: ≥ 35.9 µM
- MIC [19]: 4.49 µM (≈ 8 µg/mL)
- MIC [20]: ≥ 35.9 µM
- MIC [4]: 35.9 µM (≈ 64 µg/mL)
- MIC [21]: 4.49 µM (≈ 8 µg/mL)

Structure (SMILES): CC[C@H](C)[C@H](NC(=O)[C@@H](N)Cc1ccccc1)C(=O)N[C@@H](Cc1ccccc1)C(=O)N[C@@H](CC(C)C)C(=O)N1CCC[C@H]1C(=O)N[C@H](C(=O)N[C@@H](Cc1ccccc1)C(=O)N[C@@H](CCCN=C(N)N)C(=O)N[C@@H](CCCN=C(N)N)C(=O)N1CCC[C@H]1C(=O)N[C@H](C(=O)N[C@@H](CO)C(N)=O)C(C)C)[C@@H](C)CC [FIFLPIFRRPVS]
- MIC [22]: 10.7 µM (≈ 16 µg/mL)
- MIC [23]: ≥ 85.8 µM
- MIC [24]: ≥ 85.8 µM

Structure (SMILES): CC[C@H](C)[C@H](NC(=O)[C@H](C)N)C(=O)N[C@@H](Cc1c[nH]c2ccccc12)C(=O)N[C@@H](CCCCN)C(=O)N[C@@H](CCCCN)C(=O)N[C@H](C(=O)N[C@H](C(=O)N[C@@H](CCCCN)C(=O)N[C@@H](CCCCN)C(=O)N[C@H](C(=O)N[C@H](C(=O)N[C@@H](CCCCN)C(=O)N[C@@H](CO)C(=O)N[C@@H](C)C(=O)N[C@@H](CCCCN)C(=O)N[C@@H](CCCCN)C(=O)N[C@H](C(=O)NCC(=O)O)[C@@H](C)CC)[C@@H](C)CC)[C@@H](C)CC)[C@@H](C)CC)[C@@H](C)CC [AIWKKIIKKIIKSAKKIG]
- MIC [25]: 0.94 µM (≈ 1.94 µg/mL)
- MIC [26]: 1.88 µM (≈ 3.89 µg/mL)
- MIC [27]: 1.88 µM (≈ 3.89 µg/mL)
- MIC [28]: 1.88 µM (≈ 3.89 µg/mL)
- MIC (Escherichia coli D31): 0.94 µM (≈ 1.94 µg/mL)
